Source: publication PMC6104039 (Nature Communications, 2018)
Values joined by “and” are separate entries in the source; they are usually repeats but may differ in a detail not shown here. Equal values may be shown once.

System: HEK293 cells
Assay: Endogenous ceramide, HexCer and SM levels in cells treated 24 h, targeted LC-MS/MS
Format: cell-based
Settings: 24 h
Experimental: Lipids were then extracted using MTBE/methanol/water as described above.
HEK293 cell culture experiment: Levels of each lipid in P053-treated HEK293 cells were normalised to the mean of the vehicle control group, and each concentration was compared to the control using ANOVA with Dunnett’s post-test. P values were adjusted for multiple comparisons in GraphPad PRISM.
Supplementary Figure 1. Ceramide, SM, and HexCer levels in HEK293 cells treated with
P053. Absolute lipid levels were determined by targeted LC-MS/MS, relative to external
standard curves. Results are mean ± SEM (n = 4) from one of two identical experiments.
Statistically significant results, based on two independent experiments, are as indicated in
Figure 2b-d. Raw data for these figures is provided in Supplementary Data File 1.

## C[C@@](N)(CO)CCc1ccc(OCc2ccc(Cl)c(Cl)c2)cc1 [P053, (S)-2-amino-4-(4-(3,4-dichlorobenzyloxy)phenyl)-2-methylbutan-1-ol]
100 nM
  reduction of C18:0 ceramide: 53%
  C18 HexCer: selectively reduced
  C18 SM: selectively reduced
  C24:0 ceramide: minor increase
  other forms of ceramide: No other forms of ceramide were reduced
HEK293 cells, P053 10 nM
  14:0 SM level: 86.4023 percentage of the vehicle control group and 87.5076 percentage of the vehicle control group and 111.4 percentage of the vehicle control group and 123.229 percentage of the vehicle control group and 107.24 percentage of the vehicle control group and 105.555 percentage of the vehicle control group and 105.116 percentage of the vehicle control group and 89.1667 percentage of the vehicle control group
  16:0 Cer level: 108.507 percentage of the vehicle control group and 85.9381 percentage of the vehicle control group and 87.0921 percentage of the vehicle control group and 116.695 percentage of the vehicle control group and 104.33 percentage of the vehicle control group and 104.933 percentage of the vehicle control group and 106.707 percentage of the vehicle control group and 101.056 percentage of the vehicle control group
  16:0 HexCer level: 83.0725 percentage of the vehicle control group and 87.9406 percentage of the vehicle control group and 128.577 percentage of the vehicle control group and 99.1213 percentage of the vehicle control group and 108.606 percentage of the vehicle control group and 107.974 percentage of the vehicle control group and 99.8354 percentage of the vehicle control group and 80.4305 percentage of the vehicle control group
  16:0 SM level: 90.9817 percentage of the vehicle control group and 95.8078 percentage of the vehicle control group and 105.689 percentage of the vehicle control group and 116.265 percentage of the vehicle control group and 95.5779 percentage of the vehicle control group and 88.0621 percentage of the vehicle control group and 88.5464 percentage of the vehicle control group and 91.6422 percentage of the vehicle control group
  16:1 SM level: 86.5462 percentage of the vehicle control group and 91.7143 percentage of the vehicle control group and 104.066 percentage of the vehicle control group and 119.449 percentage of the vehicle control group and 101.997 percentage of the vehicle control group and 91.4576 percentage of the vehicle control group and 97.8179 percentage of the vehicle control group and 89.4979 percentage of the vehicle control group
  18:0 Cer level: 75.1597 percentage of the vehicle control group and 77.1381 percentage of the vehicle control group and 83.1016 percentage of the vehicle control group and 101.889 percentage of the vehicle control group and 100.455 percentage of the vehicle control group and 110.825 percentage of the vehicle control group and 90.177 percentage of the vehicle control group and 106.32 percentage of the vehicle control group
  18:0 SM level: 87.3577 percentage of the vehicle control group and 90.1399 percentage of the vehicle control group and 117.324 percentage of the vehicle control group and 82.3337 percentage of the vehicle control group and 88.9916 percentage of the vehicle control group and 83.1732 percentage of the vehicle control group and 88.0529 percentage of the vehicle control group
  18:1 SM level: 90.5796 percentage of the vehicle control group and 93.2037 percentage of the vehicle control group and 88.8318 percentage of the vehicle control group and 108.011 percentage of the vehicle control group and 95.5914 percentage of the vehicle control group and 79.238 percentage of the vehicle control group and 78.9032 percentage of the vehicle control group and 84.4686 percentage of the vehicle control group
  22:0 Cer level: 104.639 percentage of the vehicle control group and 100.078 percentage of the vehicle control group and 73.3754 percentage of the vehicle control group and 101.613 percentage of the vehicle control group and 114.746 percentage of the vehicle control group and 118.068 percentage of the vehicle control group and 114.641 percentage of the vehicle control group and 113.437 percentage of the vehicle control group
  22:0 HexCer level: 98.6933 percentage of the vehicle control group and 87.3308 percentage of the vehicle control group and 106.948 percentage of the vehicle control group and 113.522 percentage of the vehicle control group and 107.776 percentage of the vehicle control group and 119.187 percentage of the vehicle control group and 120.197 percentage of the vehicle control group and 88.6877 percentage of the vehicle control group
  22:0 SM level: 77.9336 percentage of the vehicle control group and 82.0524 percentage of the vehicle control group and 72.1049 percentage of the vehicle control group and 117.359 percentage of the vehicle control group and 120.117 percentage of the vehicle control group and 100.918 percentage of the vehicle control group and 103.279 percentage of the vehicle control group and 105.704 percentage of the vehicle control group
  22:1 SM level: 103.42 percentage of the vehicle control group and 102.614 percentage of the vehicle control group and 99.3902 percentage of the vehicle control group and 105.25 percentage of the vehicle control group and 111.738 percentage of the vehicle control group and 105.36 percentage of the vehicle control group and 88.0812 percentage of the vehicle control group and 91.3619 percentage of the vehicle control group
  24:0 HexCer level: 87.0807 percentage of the vehicle control group and 93.0525 percentage of the vehicle control group and 81.1451 percentage of the vehicle control group and 103.31 percentage of the vehicle control group and 112.306 percentage of the vehicle control group and 129.078 percentage of the vehicle control group and 103.585 percentage of the vehicle control group and 92.4822 percentage of the vehicle control group
  24:0 SM level: 97.1928 percentage of the vehicle control group and 98.2718 percentage of the vehicle control group and 75.7857 percentage of the vehicle control group and 112.798 percentage of the vehicle control group and 112.334 percentage of the vehicle control group and 114.303 percentage of the vehicle control group and 127.22 percentage of the vehicle control group and 98.002 percentage of the vehicle control group
  24:1 Cer level: 105.077 percentage of the vehicle control group and 87.804 percentage of the vehicle control group and 67.6975 percentage of the vehicle control group and 121.49 percentage of the vehicle control group and 108.722 percentage of the vehicle control group and 121.479 percentage of the vehicle control group and 112.469 percentage of the vehicle control group and 111.695 percentage of the vehicle control group
  24:1 HexCer level: 100.2 percentage of the vehicle control group and 101.908 percentage of the vehicle control group and 107.061 percentage of the vehicle control group and 109.845 percentage of the vehicle control group and 113.174 percentage of the vehicle control group and 115.061 percentage of the vehicle control group and 107.49 percentage of the vehicle control group and 96.3768 percentage of the vehicle control group
